This experiment deals with SARS-CoV-2 strains and variants (wild-type, Delta, Omicron BA.1.1, BA.2.3, BA.4, BA.5). The experiment in a line: Antiviral CPE assay in Vero E6 cells, summary over all tested strains. As to conditions: Severe acute respiratory syndrome coronavirus 2, Vero C1008. The experiment is classed as cell-based.

Like-named read-outs stand apart in the source and are kept apart here. Some results are limits rather than exact numbers.

The term EC50 denotes the midpoint of the concentration-response curve. For the molecule `O=C(O)C[C@@H]1C(=O)O[C@H]2[C@@H]3OC(=O)c4cc(O)c(O)c(O)c4-c4c(cc(O)c(O)c4O)C(=O)OC[C@H]2O[C@@H](OC(=O)c2cc(O)c(O)c(O)c2)[C@@H]3OC(=O)c2cc(O)c(O)c3c2[C@H]1[C@H](O)C(=O)O3` [CHLA, chebulagic acid], the concentration for a half-maximal effect (EC50) (read-out: EC50 values against a range of SARS-CoV-2 variants) was less than 2 µM.

As to `CC(C)(C)[C@H](NC(=O)C(F)(F)F)C(=O)N1C[C@H]2[C@@H]([C@H]1C(=O)N[C@H](C#N)C[C@@H]1CCNC1=O)C2(C)C` [PF-07321332, reference compound], the EC50 (read-out: EC50 for the tested SARS-CoV-2 strains and variants) is roughly 0.05 µM.

For the origin of these results see article PMC12648101, “Targeting SARS-CoV-2 main protease for the discovery of a broad-spectrum COVID-19 inhibitor by intensive multi-tiered validation” (Acta Pharmaceutica Sinica. B, 2025).
